Data as given in US5962456A, “N-acylpiperazine derivative, anti-ulcer drug, and antibacterial drug” (Shiseido Co., Ltd., priority 1996, dated 1999).

How the values were obtained:
[1] = system: stress ulcer; assay: WIS: Restraint and Water Immersion Stress-Induced Ulcer Inhibition Test; type: in vivo, rat (male Crj:SD or Slc:SD); details: 100 mg/kg oral, rats, 7 hours restraint and water immersion (21° C.)
Protocol: WIS: Restraint and Water Immersion Stress-Induced Ulcer Inhibition Test
The degree of inhibition of the stress ulcer formation is tested.
Male Crj:SD or Slc:SD rats (6 to 7-week-old) were fasted overnight, but allowed free access to water. Each group has 5 to 8 of these rats. […] To a control group, the vehicle was administered. 10 minutes later, the rats were placed in a stress cage and immersed to the level of xipfoid process in a water bath (21° C.) for 7 hours. At the end of the stress, the rats were sacrificed by inhalation of ether or carbon dioxide. Then, the stomach of each was removed, inflated by injecting 10 ml of 5% formalin neutral buffer solution, and immersed in 1% formalin neutral buffer solution for 30 minutes or more to be fixed. The stomach was incised along the greater curvature and then the length of each erosion in the glandular portion was determined under dissecting microscope. The sum of the length of erosions per stomach was defined as ulcer index (UI).
The effect obtained when 100 mg/kg of the sample compound had been administered was expressed as ulcer formation inhibitory rate (%) as follows:
ulcer formation inhibitory rate (%)=(1-(UI in sample group/UI in control group))×100

[2] = system: isolated gastric fundic gland; assay: CAP: Acid Secretion Inhibition Test In Vitro ([14C]-aminopyrine uptake); type: cell-based, rabbit (male Japanese White); details: Oryctolagus cuniculus; final concentration 10^-5 M; histamine 10^-5 M; rabbit gastric fundic glands; read-out: CAP acid secretion inhibitory rate
Protocol: CAP: Acid Secretion Inhibition Test In Vitro
The acid secretion inhibitory activity in a cell level is studied. It can also be used for studying the mechanism of the effect. […]
ii-a) Preparation of Isolated Gastric Fundus Gland Suspension
First, an isolated gastric fundic gland sample was prepared. Namely, a male Japanese White rabbit (2.5 to 3 kg) was anesthetized to death with Nembutal™ and then the abdomen was incised. Immediately thereafter, the stomach was removed and, after its pyloric and cardiac antrum were severed, incised along its greater curvature into two sheets. The gastric contents adhering to the mucosal surface was washed out with ice-cooled PBS (-) and then carefully washed therein. The gastric wall was spread on a cork board with its mucosal surface facing up and the feed and mucus thereon were completely removed with sterile gauze. The mucosa was separated therefrom by a spatula and then collected in ice-cooled PBS (-). After being washed twice with PBS (-), the mucosa was minced into 2-3 mm^3 pieces by scissors. These pieces were further washed twice with a nutrient solution. […] Into 70 ml of the nutrient solution containing 1 mg/ml of collagenase, minced mucosal pieces were dispersed and intensely stirred in a conical flask with a stirrer at 37° C. for 40 to 60 minutes. During this period, 100% O2 was sprayed on the nutrient solution surface and the pH was appropriately measured such that it was immediately adjusted to pH 7.4, when the value was therebelow, with a base. The nutrient solution was added to the reaction solution so as to attain the total amount of about 200 ml. After being filtered through a mesh, the suspension was divisionally introduced into 50 ml centrifuge tubes and left for 15 minutes such that gastric fundic gland was deposited. The supernatant was repeatedly removed by an aspirator, dispersed in the nutrient solution, and then left such that the gastric fundic gland was washed three times. At this time, without using a pipette, the suspension was alternately introduced into two centrifuge tubes so as to effect dispersion. The number of cells was counted under microscope and adjusted to 1.6×10^6 cells/ml. […]
ii-b) [^14 C]-aminopyrine Uptake Test
Then, [^14 C]-aminopyrine uptake test was performed. After an Eppendorf tube was weighed, 10 μl (final concentration: 10^-5 M) of histamine dissolved in the above-mentioned nutrient solution, 10 μl (final concentration: 10^-5 M) of the test compound dissolved in DMSO, and 10 μl (final concentration: 0.05 μCi/ml) of [^14 C]-aminopyrine diluted with the nutrient solution were introduced therein and then 970 μl of the isolated gastric fundic gland suspension prepared above was added thereto. […] After being centrifuged for 30 minutes, 200 μl of its supernatant was collected into a mini-vial, while the rest was removed by an aspirator. The gland pellet was completely dried as the tube with its lid being opened was kept for one night in a drying oven at 80° C. and then the lid was closed and the weight was determined at room temperature. Then 100 μl of 1N KOH was added thereto and the tube with its lid being closed was treated at 60° C. for 1 to 2 hours so as to dissolve the pellet. Then, the contents thereof were transferred to a mini-vial. Into the mini-vial containing the supernatant or gland pellet, 4 ml of Atomlite™ was added and then the radioactivity was measured by a liquid scintillation counter. Here, after the radioactivity of the gland pellet was corrected by using a sample in which 20 mM of NaSCN was added so as to cancel the hydrogen ion concentration gradient, the integration ratio of aminopyrine specifically trapped by the gland pellet was calculated. This experiment was performed in duplicate. […]
ii-c) Calculation of the Accumulation Rate of Aminopyrine
Here, its principle will be briefly explained. In the isolated gastric fundic gland, acid is accumulated in a space between its secretory tubule and intraglandular cavity.

Compound: CC(C)=CCC/C(C)=C/COc1ccc(C(=O)N2CCN(CCNC(=O)c3ccc4c(c3)OCO4)CC2)cc1 [Example 1, 1-(4-geranyloxy)benzoyl-4-[2-(piperonyloylamino)ethyl]piperazine]
- WIS ulcer formation inhibitory rate [1]: 81%
- inhibition at 10 µM [2]: 100%
